According to PMC5218480 (PLoS ONE, 2017):

Tested on: MV-4-11 cells
Test: Gene expression microarray analysis (Affymetrix PrimeView) and GSEA
Format: cell-based, human
Set-up: RFU PODN (11730768_x_at) / Fold change /veh PODN (11730768_x_at) / RFU LINC00158 (11744669_a_at) / Fold change /veh LINC00158 (11744669_a_at) / RFU DUSP10 (11751237_a_at) / Fold change /veh DUSP10 (11751237_a_at) / RFU ID3 (11757404_x_at) / Fold change /veh ID3 (11757404_x_at) / RFU PLEKHG5 (11737974_s_at) / Fold change /veh PLEKHG5 (11737974_s_at) / RFU LRRC4B (11730491_at) / Fold change /veh LRRC4B (11730491_at) / RFU GIMAP4 (11747438_a_at) / Fold change /veh GIMAP4 (11747438_a_at) / RFU KRT8 (11758183_x_at) / Fold change /veh KRT8 (11758183_x_at) / RFU CNN1 (11734310_a_at) / Fold change /veh CNN1 (11734310_a_at) / RFU VPS37D (11726825_at) / Fold change /veh VPS37D (11726825_at) / RFU C10orf10 (11716522_x_at) / Fold change /veh C10orf10 (11716522_x_at) / RFU KIR2DL2 /// KIR2DL4 /// KIR2DL5A /// KIR2DL5B /// KIR2DS1 /// KIR2DS2 /// KIR2DS3 /// KIR2DS4 /// KIR3DL3 /// KIR3DL3 /// KIR3DS1 (11738374_at) / Fold change /veh KIR2DL2 /// KIR2DL4 /// KIR2DL5A /// KIR2DL5B /// KIR2DS1 /// KIR2DS2 /// KIR2DS3 /// KIR2DS4 /// KIR3DL3 /// KIR3DL3 /// KIR3DS1 (11738374_at) / RFU C1QL1 (11718748_at) / Fold change /veh C1QL1 (11718748_at) / RFU TMPRSS4 (11747572_a_at) / Fold change /veh TMPRSS4 (11747572_a_at) / RFU HAMP (11756126_x_at) / Fold change /veh HAMP (11756126_x_at) / RFU RNFT2 (11725882_a_at) / Fold change /veh RNFT2 (11725882_a_at) / RFU NR4A2 (11747474_a_at) / Fold change /veh NR4A2 (11747474_a_at) / RFU ABCC12 (11746883_a_at) / Fold change /veh ABCC12 (11746883_a_at) / RFU TMEM136 (11760407_x_at) / Fold change /veh TMEM136 (11760407_x_at) / RFU CLDN22 /// WWC2 (11732394_at) / Fold change /veh CLDN22 /// WWC2 (11732394_at) / RFU HLA-DPB1 (11760878_x_at) / Fold change /veh HLA-DPB1 (11760878_x_at) / RFU SPINT1 (11716480_a_at) / Fold change /veh SPINT1 (11716480_a_at) / RFU GAP43 (11754022_s_at) / Fold change /veh GAP43 (11754022_s_at) / RFU A4GNT (11735810_at) / Fold change /veh A4GNT (11735810_at) / RFU PRB3 (11715151_x_at) / Fold change /veh PRB3 (11715151_x_at) / RFU TUBB4B (11761932_at) / Fold change /veh TUBB4B (11761932_at) / RFU CAPN14 (11732068_a_at) / Fold change /veh CAPN14 (11732068_a_at) / RFU TMCC2 (11721928_a_at) / Fold change /veh TMCC2 (11721928_a_at) / RFU IRGQ (11745062_a_at) / Fold change /veh IRGQ (11745062_a_at) / RFU FAM174B (11720279_a_at) / Fold change /veh FAM174B (11720279_a_at) / RFU TMPRSS4 (11748680_a_at) / Fold change /veh TMPRSS4 (11748680_a_at) / RFU FAM212B (11763350_a_at) / Fold change /veh FAM212B (11763350_a_at) / RFU PLEKHG5 (11743358_a_at) / Fold change /veh PLEKHG5 (11743358_a_at) / RFU ZSCAN30 (11745921_a_at) / Fold change /veh ZSCAN30 (11745921_a_at) / RFU CMKLR1 (11741424_a_at) / Fold change /veh CMKLR1 (11741424_a_at) / RFU LOC101060620 /// MAPK8IP1 (11723275_at) / Fold change /veh LOC101060620 /// MAPK8IP1 (11723275_at) / RFU SPTSSB (11747773_x_at) / Fold change /veh SPTSSB (11747773_x_at) / RFU PRSS12 (11739890_at) / Fold change /veh PRSS12 (11739890_at) / RFU BIN1 (11741810_x_at) / Fold change /veh BIN1 (11741810_x_at) / RFU WNT11 (11732464_a_at) / Fold change /veh WNT11 (11732464_a_at) / RFU C10orf10 (11716521_a_at) / Fold change /veh C10orf10 (11716521_a_at) / RFU C5orf56 (11738089_at) / Fold change /veh C5orf56 (11738089_at) / RFU CYB561 (11721691_x_at) / Fold change /veh CYB561 (11721691_x_at) / RFU ANKRD19P (11752326_a_at) / Fold change /veh ANKRD19P (11752326_a_at) / RFU OR2T12 /// OR2T33 /// OR2T8 (11738714_s_at) / Fold change /veh OR2T12 /// OR2T33 /// OR2T8 (11738714_s_at) / RFU VCAN (11748164_a_at) / Fold change /veh VCAN (11748164_a_at) / RFU JSRP1 (11732532_at) / Fold change /veh JSRP1 (11732532_at) / RFU KRTAP10-11 (11738290_x_at) / Fold change /veh KRTAP10-11 (11738290_x_at) / RFU MYO3A (11730013_a_at) / Fold change /veh MYO3A (11730013_a_at) / RFU EBF3 (11725865_a_at) / Fold change /veh EBF3 (11725865_a_at) / RFU CAMK2N1 (11719241_x_at) / Fold change /veh CAMK2N1 (11719241_x_at) / RFU C5orf56 (11738088_a_at) / Fold change /veh C5orf56 (11738088_a_at) / RFU OLFML3 (11715873_a_at) / Fold change /veh OLFML3 (11715873_a_at) / RFU LOC100653217 /// NTM (11731650_a_at) / Fold change /veh LOC100653217 /// NTM (11731650_a_at) / RFU MAPK11 (11762145_a_at) / Fold change /veh MAPK11 (11762145_a_at) / RFU FIZ1 (11724087_x_at) / Fold change /veh FIZ1 (11724087_x_at) / RFU OASL (11726364_x_at) / Fold change /veh OASL (11726364_x_at) / RFU SOX15 (11748057_x_at) / Fold change /veh SOX15 (11748057_x_at) / RFU CD79A (11719716_a_at) / Fold change /veh CD79A (11719716_a_at) / RFU HIST1H1D (11736915_at) / Fold change /veh HIST1H1D (11736915_at) / RFU CASKIN2 (11723855_a_at) / Fold change /veh CASKIN2 (11723855_a_at) / RFU LOC730098 (11760151_x_at) / Fold change /veh LOC730098 (11760151_x_at) / RFU OR4N2 (11742367_at) / Fold change /veh OR4N2 (11742367_at) / RFU PRRT2 (11749266_a_at) / Fold change /veh PRRT2 (11749266_a_at) / RFU SNX32 (11753110_a_at) / Fold change /veh SNX32 (11753110_a_at) / RFU CDHR5 (11726645_a_at) / Fold change /veh CDHR5 (11726645_a_at) / RFU RCAN1 (11760418_a_at) / Fold change /veh RCAN1 (11760418_a_at) / RFU FAM167A (11723789_a_at) / Fold change /veh FAM167A (11723789_a_at) / RFU FAM26E (11764081_at) / Fold change /veh FAM26E (11764081_at) / RFU ISYNA1 (11749810_s_at) / Fold change /veh ISYNA1 (11749810_s_at) / RFU ACY1 (11761880_at) / Fold change /veh ACY1 (11761880_at) / RFU 11764098_at / Fold change /veh 11764098_at / RFU SAMD14 (11745864_x_at) / Fold change /veh SAMD14 (11745864_x_at) / RFU NPB (11741838_a_at) / Fold change /veh NPB (11741838_a_at) / RFU TMPRSS6 (11731388_a_at) / Fold change /veh TMPRSS6 (11731388_a_at) / RFU KRTAP10-2 (11738614_at) / Fold change /veh KRTAP10-2 (11738614_at) / RFU ARHGAP8 /// PRR5-ARHGAP8 (11727945_x_at) / Fold change /veh ARHGAP8 /// PRR5-ARHGAP8 (11727945_x_at) / RFU KRTAP5-7 /// NADSYN1 (11734609_at) / Fold change /veh KRTAP5-7 /// NADSYN1 (11734609_at) / RFU RASL12 (11751679_a_at) / Fold change /veh RASL12 (11751679_a_at) / RFU CDKN2B (11736163_a_at) / Fold change /veh CDKN2B (11736163_a_at) / RFU PRF1 (11729649_at) / Fold change /veh PRF1 (11729649_at) / RFU, ZNF638 /// ZNF638-IT1 / Fold change vs veh, ZNF638 /// ZNF638-IT1 / RFU, PANK3 / Fold change vs veh, PANK3 / RFU, SH3YL1 / Fold change vs veh, SH3YL1 / RFU, ZEB2 / Fold change vs veh, ZEB2 / RFU, NRIP1 / Fold change vs veh, NRIP1 / RFU, PTTG1IP / Fold change vs veh, PTTG1IP / RFU, CAPN2 / Fold change vs veh, CAPN2 / RFU, MED14 / Fold change vs veh, MED14 / RFU, SNORA58 / Fold change vs veh, SNORA58 / RFU, C1orf63 / Fold change vs veh, C1orf63 / RFU, LRRFIP1 / Fold change vs veh, LRRFIP1 / RFU, NDUFAF7 / Fold change vs veh, NDUFAF7 / RFU, SLC12A2 / Fold change vs veh, SLC12A2 / RFU, IBTK / Fold change vs veh, IBTK / RFU, ESF1 / Fold change vs veh, ESF1 / Fold change vs veh, TMEM50B / RFU, TAOK1 / Fold change vs veh, TAOK1 / RFU, ACBD3 / Fold change vs veh, ACBD3 / RFU, TMA16 / Fold change vs veh, TMA16 / RFU, RWDD3 / Fold change vs veh, RWDD3 / RFU, BCAT1 / Fold change vs veh, BCAT1 / RFU, EDEM3 / Fold change vs veh, EDEM3 / RFU, TMEM33 / Fold change vs veh, TMEM33 / RFU, WDR75 / Fold change vs veh, WDR75 / RFU, AHCTF1 / Fold change vs veh, AHCTF1 / RFU, TFRC / Fold change vs veh, TFRC / RFU, ZDHHC17 / Fold change vs veh, ZDHHC17 / RFU, NOM1 / Fold change vs veh, NOM1 / RFU, ARL8B / Fold change vs veh, ARL8B / RFU, ZBTB11 / Fold change vs veh, ZBTB11 / RFU, TAMM41 / Fold change vs veh, TAMM41 / RFU, KIAA1704 /// LOC100996395 / Fold change vs veh, KIAA1704 /// LOC100996395 / RFU, ING1 / Fold change vs veh, ING1 / RFU, TRMT61B / Fold change vs veh, TRMT61B / RFU, FUBP3 / Fold change vs veh, FUBP3 / RFU, TP53 / Fold change vs veh, TP53 / RFU, TNKS2 / Fold change vs veh, TNKS2 / RFU, ZFP14 / Fold change vs veh, ZFP14 / RFU, ACTR2 / Fold change vs veh, ACTR2 / RFU, PPP3R1 / Fold change vs veh, PPP3R1 / RFU, PIK3R1 / Fold change vs veh, PIK3R1 / RFU, HNRNPA1 / Fold change vs veh, HNRNPA1 / RFU, RNF170 / Fold change vs veh, RNF170 / RFU, ZNF28 / Fold change vs veh, ZNF28 / RFU, RNGTT / Fold change vs veh, RNGTT / RFU, OGT / Fold change vs veh, OGT / RFU, BRD1 / Fold change vs veh, BRD1 / RFU, MARS / Fold change vs veh, MARS / RFU, ZNF655 / Fold change vs veh, ZNF655 / RFU, FAHD1 / Fold change vs veh, FAHD1 / RFU, BDP1 / Fold change vs veh, BDP1 / RFU, LRRCC1 / Fold change vs veh, LRRCC1 / RFU, ARID1A / Fold change vs veh, ARID1A / RFU, ZNF146 / Fold change vs veh, ZNF146 / RFU, ZNF330 / Fold change vs veh, ZNF330 / RFU, GPN3 / Fold change vs veh, GPN3 / RFU, C9orf123 / Fold change vs veh, C9orf123 / RFU, N4BP2L2 / Fold change vs veh, N4BP2L2 / RFU, ARFIP1 / Fold change vs veh, ARFIP1 / RFU, FAM179B / Fold change vs veh, FAM179B / RFU, BCL10 / Fold change vs veh, BCL10 / RFU, UHRF1BP1L / Fold change vs veh, UHRF1BP1L / RFU, BET1 / Fold change vs veh, BET1 / RFU, CNOT2 / Fold change vs veh, CNOT2 / RFU, ZNF268 / Fold change vs veh, ZNF268 / Fold change vs veh, ZNF507 / RFU, DGCR2 / Fold change vs veh, DGCR2 / RFU, WDSUB1 / Fold change vs veh, WDSUB1 / Fold change vs veh, HSP90B1 /// MIR3652 / RFU, ADSS / Fold change vs veh, ADSS / RFU, GK / Fold change vs veh, GK / RFU, ZNF148 / Fold change vs veh, ZNF148 / RFU, TAF9 / Fold change vs veh, TAF9 / RFU, SLC1A5 / Fold change vs veh, SLC1A5 / RFU, SLMO2 / Fold change vs veh, SLMO2 / RFU, ABCC4 / Fold change vs veh, ABCC4 / RFU, LOC101060439 /// RAP1B / Fold change vs veh, LOC101060439 /// RAP1B / RFU, RFX7 / Fold change vs veh, RFX7 / RFU, GTPBP10 / Fold change vs veh, GTPBP10 / RFU, CNEP1R1 / Fold change vs veh, CNEP1R1 / RFU, BIVM-ERCC5 /// ERCC5 / Fold change vs veh, BIVM-ERCC5 /// ERCC5 / RFU, ILF3 / Fold change vs veh, ILF3 / RFU 11762660_at / Fold change /veh 11762660_at / RFU VCAN (11757783_s_at) / Fold change /veh VCAN (11757783_s_at) / RFU DDX43 (11728927_at) / Fold change /veh DDX43 (11728927_at) / RFU KRT8 (11758188_x_at) / Fold change /veh KRT8 (11758188_x_at) / RFU NKD1 (11759106_at) / Fold change /veh NKD1 (11759106_at) / RFU SRD5A1 (11742802_a_at) / Fold change /veh SRD5A1 (11742802_a_at) / RFU TPSAB1 /// TPSB2 (11721975_s_at) / Fold change /veh TPSAB1 /// TPSB2 (11721975_s_at) / RFU GSTM3 (11746129_a_at) / Fold change /veh GSTM3 (11746129_a_at) / RFU IL23R (11737362_x_at) / Fold change /veh IL23R (11737362_x_at) / RFU TMEM51 (11727254_a_at) / Fold change /veh TMEM51 (11727254_a_at) / RFU PIWIL2 (11732686_x_at) / Fold change /veh PIWIL2 (11732686_x_at) / RFU ORM1 (11744905_x_at) / Fold change /veh ORM1 (11744905_x_at) / RFU CCDC152 (11743942_at) / Fold change /veh CCDC152 (11743942_at) / RFU ECM1 (11717891_a_at) / Fold change /veh ECM1 (11717891_a_at) / RFU IL23R (11748794_a_at) / Fold change /veh IL23R (11748794_a_at) / RFU TNFAIP8L3 (11732012_x_at) / Fold change /veh TNFAIP8L3 (11732012_x_at) / RFU MBOAT4 (11741988_at) / Fold change /veh MBOAT4 (11741988_at) / RFU 11764193_at / Fold change /veh 11764193_at / RFU TMEM53 (11763286_at) / Fold change /veh TMEM53 (11763286_at) / RFU MAGEB2 (11727129_at) / Fold change /veh MAGEB2 (11727129_at) / RFU TMEM200A (11744735_a_at) / Fold change /veh TMEM200A (11744735_a_at) / RFU CCDC152 (11751479_a_at) / Fold change /veh CCDC152 (11751479_a_at) / RFU FAM211A (11726209_a_at) / Fold change /veh FAM211A (11726209_a_at) / RFU RGS16 (11746705_a_at) / Fold change /veh RGS16 (11746705_a_at) / RFU VCAN (11755009_s_at) / Fold change /veh VCAN (11755009_s_at) / RFU RHOB (11743442_s_at) / Fold change /veh RHOB (11743442_s_at) / RFU RGS16 (11720943_a_at) / Fold change /veh RGS16 (11720943_a_at) / RFU RGS16 (11720944_at) / Fold change /veh RGS16 (11720944_at) / RFU, VPS4B / Fold change vs veh, VPS4B / RFU, CREB1 / Fold change vs veh, CREB1 / RFU, DNAJC13 / Fold change vs veh, DNAJC13 / RFU, GNAQ / Fold change vs veh, GNAQ / RFU, CDK5R1 / Fold change vs veh, CDK5R1 / RFU, ZRANB3 / Fold change vs veh, ZRANB3 / RFU, CUL4A / Fold change vs veh, CUL4A / RFU, CCNY / Fold change vs veh, CCNY / RFU, UFL1 / Fold change vs veh, UFL1 / RFU, COG3 / Fold change vs veh, COG3 / RFU, DIAPH2 / Fold change vs veh, DIAPH2 / RFU, SKA2 / Fold change vs veh, SKA2 / RFU, AFF3 / Fold change vs veh, AFF3 / RFU, LMF1 / Fold change vs veh, LMF1 / RFU, IPO11 / Fold change vs veh, IPO11 / RFU, DFFB / Fold change vs veh, DFFB / RFU, FOXP1 / Fold change vs veh, FOXP1 / RFU, CARD8 / Fold change vs veh, CARD8 / RFU, STRN3 / Fold change vs veh, STRN3 / RFU, ADK / Fold change vs veh, ADK / RFU, RASSF2 / Fold change vs veh, RASSF2 / RFU, WIPF1 / Fold change vs veh, WIPF1 / RFU, LARP1B / Fold change vs veh, LARP1B / RFU, RASA1 / Fold change vs veh, RASA1 / RFU, RB1 / Fold change vs veh, RB1 / RFU, PPFIA1 / Fold change vs veh, PPFIA1 / RFU, MAT2A / Fold change vs veh, MAT2A / RFU, CCT5 / Fold change vs veh, CCT5 / RFU, WDR92 / Fold change vs veh, WDR92 / RFU, CUX1 / Fold change vs veh, CUX1 / RFU, TTC7A / Fold change vs veh, TTC7A / RFU, TMEM135 / Fold change vs veh, TMEM135 / RFU, DEPTOR / Fold change vs veh, DEPTOR / RFU, CPM / Fold change vs veh, CPM / RFU, DNAJB6 / Fold change vs veh, DNAJB6 / RFU, CACNA2D3 / Fold change vs veh, CACNA2D3 / RFU, DTX4 / Fold change vs veh, DTX4 / RFU, TFCP2 / Fold change vs veh, TFCP2 / RFU, GMCL1 /// GMCL1P1 / Fold change vs veh, GMCL1 /// GMCL1P1 / RFU, AEBP2 / Fold change vs veh, AEBP2 / RFU, SNHG1 /// SNORD22 /// SNORD25 /// SNORD26 /// SNORD27 /// SNORD28 /// SNORD29 /// SNORD31 / Fold change vs veh, SNHG1 /// SNORD22 /// SNORD25 /// SNORD26 /// SNORD27 /// SNORD28 /// SNORD29 /// SNORD31 / Fold change (Aza/veh), C12orf56 (ProbeSet 11735607_a_at) / Fold change (ACY-1035/veh), C12orf56 (ProbeSet 11735607_a_at) / Fold change (Aza/veh), FGFR1OP (ProbeSet 11751329_s_at) / Fold change (ACY-1035/veh), FGFR1OP (ProbeSet 11751329_s_at) / Fold change (Aza/veh), VPS36 (ProbeSet 11739960_a_at) / Fold change (ACY-1035/veh), VPS36 (ProbeSet 11739960_a_at) / RFU SYPL1 (11715823_x_at) / Fold change /veh SYPL1 (11715823_x_at) / RFU IGFBP7 (11715501_s_at) / Fold change /veh IGFBP7 (11715501_s_at) / RFU REEP3 (11722064_at) / Fold change /veh REEP3 (11722064_at) / RFU IGLL1 (11728026_x_at) / Fold change /veh IGLL1 (11728026_x_at): dose or concentration left out as unconfirmed
Settings: MV-4-11 cells, 48 hours

Structure (SMILES): Nc1ncn([C@@H]2O[C@H](CO)[C@@H](O)[C@H]2O)c(=O)n1 [azacitidine]
- RFU SOX15 (11748057_x_at): 12.99 RFU
